# Target: T1, ENPP1 (ectonucleotide pyrophosphatase/phosphodiesterase 1) (Mus musculus, UniProt P06802)
# T1 sequence (P06802 1-906): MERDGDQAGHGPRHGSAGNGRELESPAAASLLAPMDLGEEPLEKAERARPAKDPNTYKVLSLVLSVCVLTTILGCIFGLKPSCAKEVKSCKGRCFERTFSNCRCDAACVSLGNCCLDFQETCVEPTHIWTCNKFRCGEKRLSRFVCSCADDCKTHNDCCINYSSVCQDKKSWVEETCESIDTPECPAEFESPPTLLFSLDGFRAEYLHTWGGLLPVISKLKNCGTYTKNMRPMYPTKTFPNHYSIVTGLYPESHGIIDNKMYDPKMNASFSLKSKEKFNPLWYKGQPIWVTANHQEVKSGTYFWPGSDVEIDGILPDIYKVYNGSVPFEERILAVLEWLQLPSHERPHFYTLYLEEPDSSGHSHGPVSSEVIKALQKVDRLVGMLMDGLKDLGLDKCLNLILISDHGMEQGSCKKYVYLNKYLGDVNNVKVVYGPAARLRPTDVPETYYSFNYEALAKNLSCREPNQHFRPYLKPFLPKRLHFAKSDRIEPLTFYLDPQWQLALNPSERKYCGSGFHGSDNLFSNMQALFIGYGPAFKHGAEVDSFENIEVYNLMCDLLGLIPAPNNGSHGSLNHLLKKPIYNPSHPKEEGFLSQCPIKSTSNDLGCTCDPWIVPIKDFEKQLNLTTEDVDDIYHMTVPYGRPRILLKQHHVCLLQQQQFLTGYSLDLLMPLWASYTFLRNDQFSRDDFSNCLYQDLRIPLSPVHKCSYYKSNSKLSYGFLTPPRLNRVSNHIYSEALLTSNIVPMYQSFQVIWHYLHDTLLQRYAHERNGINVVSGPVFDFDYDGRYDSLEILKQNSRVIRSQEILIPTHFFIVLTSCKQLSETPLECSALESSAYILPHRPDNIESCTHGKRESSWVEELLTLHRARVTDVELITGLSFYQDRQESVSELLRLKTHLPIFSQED
# Assay: Transcreener AMP/GMP TR-FRET enzymatic assay, […] mouse ENPP1 protein, […] ATP
# Type: biochemical
substance,measurement,value
REV102,IC50,6.3 nM

# Reference: paper PMC13017400, “ENPP1 inhibition as a therapeutic approach for later-onset hypophosphatasia” (Journal of Bone and Mineral Research, 2025)
